Results published in patent publication US11938189B2, “Compositions and methods for stabilizing protein-containing formulations” (Genentech, Inc., priority 2010, dated 2024).

How the values were obtained:
[1] = tested on: Humanized anti-oxidized LDL monoclonal antibody; test: Light-induced oxidation of tryptophan residues (LC/MS/MS tryptic peptide map); type: physicochemical; details: Light 24 hrs
Description: MAb samples and light treatment: Humanized anti-oxidized LDL monoclonal antibody, was produced at Genentech, Inc. from a CHO cell line. Three independent samples were prepared for photostability studies: 1) control sample, vial wrapped with aluminum foil; 2) test sample, vial light exposed (unwrapped); 3) test sample, vial light exposed (unwrapped) containing the specified non-ionic surfactant. Both control & light exposed samples were kept in a light box for 24 hrs. Light exposure following ICH guideline with following setting for a Atlas SUNTEST CPS+Light Box: Irradiance level=250 watts/square meter; Time set for 24 hours; Total UV dose=538 watt-hours/square meter; Total visible dose=1,320,000 lux-hours.
LC/MS/MS of tryptic MAb peptide map: Samples were digested with trypsin after reduction and alkylation. The resulting peptides were analyzed with a Thermo LTQ-Orbitrap mass spectrometer coupled with an Agilent 1200 capillary HPLC system. HPLC column: Jupiter 5 um C18 250×1.0 mm, flow rate: 70 uL/min, column oven temperature: 55° C. Solvent A: 0.1% TFA in water, B: 0.09% TFA in 90% ACN. Orbitrap setting: MS resolution 60000, MS/MS collected in data dependent mode, using LTQ.
The effect of light, and the protective effect of non-ionic surfactants, on the oxidation of tryptophan residues on an anti-oxidized LDL antibody was determined.

[2] = in water at 20-25° C., cited from earlier work; for CMC Value (% w/v): cells printed without %
[3] = tested on: anti-MUC16 monoclonal antibody; test: Shaking-induced aggregation (150 rpm), percent monomer by size-exclusion chromatography; type: physicochemical; details: surfactant at one half of its CMC; shaking 150 rpm, 37° C., 64 hours; FIG. 1
Description: In this set of studies, a buffered solution (20 mM sodium phosphate buffer, pH 7.4) of monoclonal antibody was subjected to shaking on an orbital shaker at 150 rpm, at a controlled temperature of 37° C. These studies were carried out using a 3 ml solution fill of the antibody solution in a 6 cc glass vial. Samples were withdrawn at regular intervals and analyzed for percent monomer using size-exclusion chromatography. Various surfactants of the class of alkylglycosides were evaluated for their effectiveness to prevent protein aggregation during shaking. The surfactants were used at concentrations below their respective critical micelle concentration (CMC) or above their respective CMC.
The surfactants were employed at one half the concentration of their respective CMC values, i.e., 1.1 mM (0.035% w/v) n-decyl-β-D-glucopyranoside, 9 mM (0.24%) n-octyl-β-D-glucopyranoside and 0.04 mM (0.0035%) polysorbate 20.

[4] = tested on: anti-CD11a monoclonal antibody; test: Oxidation of Met256 on storage in surfactant-containing antibody solution; type: physicochemical; details: 0.1% w/v surfactant, pH 6.0, stored at 5° C. or 40° C. for 2 or 4 weeks; FIG. 15
Description: In a second experiment, oxidation of the Met256 amino acid residue in an anti-CD11a monoclonal antibody in solutions containing either n-decyl-β-D-glucopyranoside, n-octyl-β-D-glucopyranoside, or polysorbate 20 was evaluated. For this purpose, 3 ml of the buffered antibody solution (pH 6.0) containing 0.1% w/v of the surfactant was stored in 6 cc vials at either 5° C. or 40° C. for a period of either 2 or 4 weeks.

SMILES | CMC Value [2] [mM] | CMC Value (w/v) [2] [% w/v] | other results
CCCCCCO[C@@H]1O[C@H](CO)[C@@H](O[C@H]2O[C@H](CO)[C@@H](O)[C@H](O)[C@H]2O)[C@H](O)[C@H]1O [n-hexyl-β-D-maltopyranoside] | 210 | 8.9 | % Oxidized Trp33 ([1]; 0.39 mM surfactant): 0.3%; % Oxidized Trp92 ([1]; 0.39 mM surfactant): 5.7%; % Oxidized Trp33 ([1]; 300 mM surfactant): 0.0%; % Oxidized Trp92 ([1]; 300 mM surfactant): 2.2%
CCCCCCCCCCCCO[C@@H]1O[C@H](CO)[C@@H](O)[C@H](O)[C@H]1O [n-dodecyl-β-D-glucopyranoside, reference compound] | 0.19 | – | % Oxidized Trp33 ([1]; 0.03 mM surfactant): 0.4%; % Oxidized Trp92 ([1]; 0.03 mM surfactant): 8.9%; CMC Value (% w/v) [2]: 0.0066 % w/v
OC[C@H]1O[C@H](O[C@H]2[C@H](O)[C@@H](O)[C@H](OCCCCC3CCCCC3)O[C@@H]2CO)[C@H](O)[C@@H](O)[C@@H]1O [4-cyclohexyl-butyl-β-D-maltoside] | 7.6 | 0.37 | –
OC[C@H]1O[C@H](O[C@H]2[C@H](O)[C@@H](O)[C@H](OCCC3CCCCC3)O[C@@H]2CO)[C@H](O)[C@@H](O)[C@@H]1O [2-cyclohexyl-ethyl-β-D-maltoside] | 120 | 5.4 | –
CCCCCCCCCCO[C@@H]1O[C@H](CO)[C@@H](O)[C@H](O)[C@H]1O [n-decyl-β-D-glucopyranoside] | 2.2 | 0.07 | prevention of shaking-induced loss of percent monomer [3]: effective in preventing loss of monomer; increase in percent oxidized Met256 vs initial sample [4]: no significant increase
CCCCCCCCO[C@@H]1O[C@H](CO)[C@@H](O[C@H]2O[C@H](CO)[C@@H](O)[C@H](O)[C@H]2O)[C@H](O)[C@H]1O [n-octyl-β-D-maltopyranoside] | 19.5 | 0.89 | –
OC[C@H]1O[C@H](O[C@H]2[C@H](O)[C@@H](O)[C@H](OCCCCCC3CCCCC3)O[C@@H]2CO)[C@H](O)[C@@H](O)[C@@H]1O [5-cyclohexyl-pentyl-β-D-maltoside] | 2.4 | 0.12 | –
CCCCCCCCCCCCO[C@@H]1O[C@H](CO)[C@@H](O[C@H]2O[C@H](CO)[C@@H](O)[C@H](O)[C@H]2O)[C@H](O)[C@H]1O [n-dodecyl-β-D-maltopyranoside, reference compound] | 0.17 | – | % Oxidized Trp33 ([1]; 0.03 mM surfactant): 0.0%; % Oxidized Trp92 ([1]; 0.03 mM surfactant): 10.6%; % Oxidized Trp33 ([1]; 0.39 mM surfactant): 0.1%; % Oxidized Trp92 ([1]; 0.39 mM surfactant): 2.7%; CMC Value (% w/v) [2]: 0.0087 % w/v
OC[C@H]1O[C@H](O[C@H]2[C@H](O)[C@@H](O)[C@H](OCCCC3CCCCC3)O[C@@H]2CO)[C@H](O)[C@@H](O)[C@@H]1O [3-cyclohexyl-propyl-β-D-maltoside] | 34.5 | 1.6 | –
CCCCCCCCCCO[C@@H]1O[C@H](CO)[C@@H](O[C@H]2O[C@H](CO)[C@@H](O)[C@H](O)[C@H]2O)[C@H](O)[C@H]1O [n-decyl-β-D-maltopyranoside] | 1.8 | 0.087 | –
CCCCCCO[C@@H]1O[C@H](CO)[C@@H](O)[C@H](O)[C@H]1O [n-hexyl-β-D-glucopyranoside] | 250 | 6.6 | % Oxidized Trp33 ([1]; 0.39 mM surfactant): 0.3%; % Oxidized Trp92 ([1]; 0.39 mM surfactant): 4.9%; % Oxidized Trp33 ([1]; 300 mM surfactant): 0.0%; % Oxidized Trp92 ([1]; 300 mM surfactant): 1.6%
CCCCCCCO[C@@H]1O[C@H](CO)[C@@H](O)[C@H](O)[C@H]1O [n-heptyl-β-D-glucopyranoside] | 70 | 1.9 | –
CCCCCCCCCO[C@@H]1O[C@H](CO)[C@@H](O)[C@H](O)[C@H]1O [n-nonyl-β-D-glucopyranoside] | 6.5 | 0.2 | –
OC[C@H]1O[C@H](O[C@H]2[C@H](O)[C@@H](O)[C@H](OCC3CCCCC3)O[C@@H]2CO)[C@H](O)[C@@H](O)[C@@H]1O [cyclohexyl-methyl-β-D-maltoside] | 340 | 15 | –
OC[C@H]1O[C@@H](OCCCC2CCCCC2)[C@H](O)[C@@H](O)[C@@H]1O [3-cyclohexyl-1-propyl-β-D-glucoside] | 28 | 0.86 | –
CCCCCCCCCO[C@@H]1O[C@H](CO)[C@@H](O[C@H]2O[C@H](CO)[C@@H](O)[C@H](O)[C@H]2O)[C@H](O)[C@H]1O [n-nonyl-β-D-maltopyranoside] | 6 | 0.28 | –
CC(CCO[C@@H]1O[C@H](CO)[C@@H](O)[C@H](O)[C@H]1O)C1CCCCC1 (stereo partly drawn) [3-cyclohexyl-1-butyl-β-D-glucoside] | 1.8 | 0.058 | –
